Reference: paper PMC8453936, “Development and in vitro Profiling of Dual FXR/LTA4H Modulators” (Chemmedchem, 2021)
pKd: −log10 of the molar value.

Assays:
[1] = target: T1, recombinant human FXR LBD (Homo sapiens, UniProt Q96RI1); experiment: Isothermal titration calorimetry on FXR LBD; settings: ITC, 25 °C, 1:1 binding assumed
T1 construct: Recombinant FXR LBD for ITC experiments was obtained; His6-tag (TEV-cleavable) (cleaved yes); made in house; host or cells: E. coli BL21 (DE3)
T1 sequence (Q96RI1 262-486 limits assumed): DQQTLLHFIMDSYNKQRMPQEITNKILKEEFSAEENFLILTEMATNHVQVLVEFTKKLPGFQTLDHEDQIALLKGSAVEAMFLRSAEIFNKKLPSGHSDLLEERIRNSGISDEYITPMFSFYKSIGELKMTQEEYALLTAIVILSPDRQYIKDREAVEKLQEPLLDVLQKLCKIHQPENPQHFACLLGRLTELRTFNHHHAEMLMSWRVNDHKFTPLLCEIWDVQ

HepG2 cells = experiment: WST-1 cell viability assay; type: cell-based; settings: up to 100 μM, 48 h
[2] = system: related nuclear receptors (RAR, PPAR, LXR, VDR, CAR, RXR); experiment: Gal4 hybrid reporter gene assays, selectivity over related nuclear receptors (HEK293T); type: cell-based, human; settings: heatmap of mean relative activation, n=2
Text: Isothermal titration calorimetry (ITC) confirmed binding of 8 and 19 to the recombinant proteins of both FXR LBD and LTA4H (Figure 1).
Figure 2 (a) Selectivity profiles of 8 and 19 over related nuclear receptors. […] (b) Activity of 8 and 19 in a WST‐1 cell viability assay in HepG2 cells. Data are mean±S.E.M., n=4. […] Data are mean±S.E.M. relative FXR activation (%), n≥3. […] Data are mean±S.E.M. relative LTA4H inhibition (%), n=3.
Hybrid reporter gene assays. Nuclear receptor modulation was determined in hybrid reporter gene assays using the Gal4‐fusion receptor plasmids pFA‐CMV‐hPPARα‐LBD,[39] pFA‐CMV‐hPPARγLBD,[39] pFA‐CMV‐hPPARδ‐LBD,[39] pFA‐CMV‐hLXRα‐LBD,[40] pFACMV‐hLXRβ‐LBD,[40] pFA‐CMV‐hRXRα‐LBD,[41] pFA‐CMV‐hRARα‐LBD,[41] pFA‐CMV‐hVDR‐LBD[41] and pFA‐CMV‐hCAR‐LBD[41] coding for the hinge region and ligand binding domain (LBD) of the canonical isoform of the respective nuclear receptor, pFR‐Luc (Stratagene) as reporter plasmid and pRL‐SV40 (Promega) for normalization of transfection eﬃciency. HEK293T cells were grown in DMEM high glucose, supplemented with 10 % FCS, sodium pyruvate (1 mM), penicillin (100 U/mL), and streptomycin (100 μg/mL) at 37 °C and 5 % CO2, and seeded in 96‐well plates (2.5 ⋅ 10^4 cells/well) the day before transfection. […] Luminescence was measured with an Infinite M200 luminometer (Tecan Deutschland GmbH, Germany). […]

recombinant human LTA4H = target: T2, recombinant human LTA4H (Homo sapiens, UniProt P09960); experiment: Isothermal titration calorimetry on LTA4H; set-up: His-tag (inferred from IMAC on HisTrap); made in house; host or cells: E. coli BL21(DE3)RIPL-Codon Plus; settings: ITC, 25 °C, 1:1 binding assumed
T2 sequence (P09960 1-611): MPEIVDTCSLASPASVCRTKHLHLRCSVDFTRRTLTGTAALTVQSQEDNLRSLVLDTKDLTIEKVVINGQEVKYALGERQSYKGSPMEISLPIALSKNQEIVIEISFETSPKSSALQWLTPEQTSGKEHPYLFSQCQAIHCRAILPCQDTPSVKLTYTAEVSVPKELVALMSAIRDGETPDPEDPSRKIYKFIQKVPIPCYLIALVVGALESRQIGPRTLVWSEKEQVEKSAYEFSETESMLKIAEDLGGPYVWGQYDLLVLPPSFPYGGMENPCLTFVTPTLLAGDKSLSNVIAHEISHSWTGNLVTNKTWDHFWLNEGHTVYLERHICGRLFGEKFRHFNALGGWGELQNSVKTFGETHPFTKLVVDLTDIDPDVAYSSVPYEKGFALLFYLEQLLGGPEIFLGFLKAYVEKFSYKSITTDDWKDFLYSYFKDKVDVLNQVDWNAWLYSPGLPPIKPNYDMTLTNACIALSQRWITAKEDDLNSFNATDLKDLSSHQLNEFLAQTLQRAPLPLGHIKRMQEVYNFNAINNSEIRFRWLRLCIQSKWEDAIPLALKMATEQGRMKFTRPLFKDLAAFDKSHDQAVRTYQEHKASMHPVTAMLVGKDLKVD

SMILES | pKd [1] | cytotoxic / anti-proliferative effect in WST-1 assay (HepG2 cells) | selectivity over related nuclear receptors [2] | pKd (recombinant human LTA4H)
O=C(O)c1cccc(NC(=O)c2ccc(OCCCc3ccccc3)cc2)c1 [compound 8] | ~5.15 | slight anti‐proliferative activity at high concentration | favorable selectivity | ~6.52
O=C(O)c1ccnc(NC(=O)c2ccc(OCCCc3ccccc3)cc2)c1 [compound 19, 2‐(4‐(3‐Phenylpropoxy)benzamido)isonicotinic acid] | ~5.52 | no cytotoxic effects | favorable selectivity | ~6.15
